Assay results: patent US11285125B2, “Oxidative retinal diseases” (priority 2011, dated 2022)
Read-outs that look alike come from different tables or passages of the source. Values belong to the compound of their own block, whether it stands above or below them.

Key:
[1] = tested on: coq null mutants (Q-less yeast); details: for viability of coq null mutants after fatty acid treatment: 200 μM fatty acid, plate dilution assay; for viability of cells by quantitative colony counting: colony counting at 1, 2 and 4 h
Method: Yeast coq3, coq7 and coq9 null mutants were prepared in the W303 yeast genetic background (WT). […] Cells were washed twice with sterile water and resuspended in phosphate buffer (0.10 M sodium phosphate, pH 6.2, 0.2% dextrose) to an OD600 nm=0.2. Samples were removed and 1:5 serial dilutions starting at 0.20 OD/ml were plated on YPD plate medium, to provide a zero time untreated control (shown in top left panel). The designated fatty acids were added to 200 μM final concentration to 20 ml of yeast in phosphate buffer. At 2 h, 4 h, and 16 h samples were removed, 1:5 serial dilutions prepared, and spotted onto YPD plate medium. Pictures were taken after 2 days of growth at 30° C. This panel is representative of two independent assays, performed on different days.
The fatty acid sensitive assay was performed as described in FIG. 6-1, except that 100 μl aliquots were removed at 1, 2, and 4 h and, following dilution, spread onto YPD plates. Pictures were taken after 2 to 2.5 days, and the number of colonies counted. Yeast strains include Wild type (circles), atp2 (triangles), or coq3 (squares); Fatty acid treatments include oleic C18:1 (solid line), linolenic, C18:3, n-3 (dashed line) or 11,11,14,14-D4-linolenic, C18:3, n-3, (dotted line).
A plate dilution assay can be used to assess PUFA sensitivity. This assay can be performed by spotting serial five-fold dilutions of aliquots onto YPD plate media (FIG. 3). The sensitivity of the different strains can be observed by visual inspection of the density of cells in each spot.

[2] = Kinetics of O2 consumption during non-enzymatic chain oxidation in chlorobenzene initiated by AMVN; format: physicochemical; details: for rate of oxidation, ROX: 0.71 M in chlorobenzene, 40 mM AMVN, 37° C.
Method: FIG. 7. Kinetics of O2 consumption accompanied the oxidation of 0.71 M LA (plots 1 and 2) and 0.71 M D2-LA (plot 3) in chlorobenzene initiated by 40 mM AMVN at 37° C. Plot 2-0.23 mM HPMC was added to 0.71 M LA.
The kinetics of oxygen consumption during the oxidation of LA and D2-LA was studied with a glass capillary microvolumeter (FIG. 7). The rate of oxidation, ROX, was measured as a slope of [O2] traces. The rate of initiation, RIN, was determined by the inhibitor method with HPMC (“6-hydroxy-2,2,5,7,8-pentamethylbenzochroman”) as a reference inhibitor. RIN was calculated from the induction period of inhibited oxidation, tIND: RIN=2·[HPMC]/tIND. […] When the process was inhibited by 0.23 mM chain-breaking antioxidant HPMC, the duration of the induction period, tIND, was about 48 min, with the RIN value of around 0.16×10^−6 M/s. […] The latter precludes a direct determination of RIN. […] An estimated kinetic isotope effect (“KIE”), from comparison of ROX for LA and D2-LA, was around 6.1×10^−6/0.18×10^−6≈35. A similar KIE was determined during the oxidation of LA and 11,11-d2-LA in Triton X-100 aqueous micelles (data not shown). For comparative purposes, the theoretical KIE is 6.9 at 25° C. See Carpenter, “Determination of Organic Reaction Mechanisms” (John Wiley & Sons, 1984), p. 89.

[3] = Rate of oxidation of mixtures of LA and D2-LA in chlorobenzene; format: physicochemical
Method: FIG. 8. Dependence of the rate of oxidation of the mixture of LA and D2-LA in chlorobenzene solution on mixture composition. Conditions: [LA]+[11,11-d2-LA]=0.775 M; [AMVN]=0.0217 M; 37° C. RIN=(1.10±0.08)×10^−7 M/sec.
To simulate the likely in vivo conditions, the kinetics of the oxidation of the mixtures of D2-LA and LA were studied (FIG. 8). In the experiments, the concentration of LA plus 11,11-d2-LA was 0.775 M; the concentration of AMVN was 0.0217 M; and the reactions were carried out at 37° C. The results afforded an RIN of 1.10±0.08×10^−7 M/sec.

Wild-type yeast cells = assay: Copper-stress lipid peroxidation assay (C11-Bodipy 581/591 fluorescence); format: cell-based, S. cerevisiae; details: 200 μM fatty acid 2 hours, then 50 μM CuSO4 60 min
Method: Wild-type yeast cells were treated as described above except the yeast were treated with 200 μM of the designated fatty acid for 2 hours, washed with sterile water, and were either not treated (triangles) or treated with 50 μM CuSO4 (squares) at room temperature. After 60 min of copper treatment cells were treated with 8 μM C11-Bodipy 581/591 for 30 min at room temperature. Four 100 μl aliquots were plated in a 96-well plate and the fluorescence was measured.

[4] = tested on: coq null mutants (Q-less yeast); details: cited from earlier work; for sensitivity of Q-less yeast to fatty acid treatment: compared with wild-type parental strain
[5] = 70 kg person; cited from earlier work
wild-type yeast (W303) = details: four hour treatment, strain W303-1B background; cited from earlier work

Method for Q-less coq3 yeast: Wild-type, yeast Q-less coq3, or respiratory deficient con 1 null mutants were incubated in the presence of 200 μM of LA and D2-LA at different ratios of PUFAs. Serial dilutions (1:5) starting at 0.2 OD/ml were spotted on YPD solid plate medium. A zero-time untreated control is shown on the top left. Growth at 30° C.
Wild-type, yeast Q-less coq3, or respiratory deficient con 1 null mutants were incubated in the presence of 200 μM of ALA and D4-LA at different ratios of PUFAs. Serial dilutions (1:5) starting at 0.2 OD/ml were spotted on YPD solid plate medium. Growth at 30° C.
Wild-type, yeast Q-less coq3, or respiratory deficient cor1 null mutants were incubated in the presence of 200 μM of LA and D2-LA at different ratios of PUFAs, as indicated in FIG. 9. Serial dilutions (1:5) starting at 0.20D/ml were spotted on YPD solid plate medium. […] Growth was at 30° C.
The experimental protocol described for Example 14 was also reproduced in vivo using Q-less coq3 yeast strains (FIG. 10) and different ratios of ALA to D4-ALA. Wild-type, yeast Q-less coq3, or respiratory deficient cor1 null mutants were incubated in the presence of 200 μM of ALA and D4-Lnn (Linolenic acid) at different ratios of PUFAs, as indicated in FIG. 10. Serial dilutions (1:5) starting at 0.2 OD/ml were spotted on YPD solid plate medium. Growth was at 30° C.

SMILES: [2H]C(/C=C\CCCCC)/C=C\CCCCCCCC(=O)O (stereo not shown) [11,11-D,H-LA, [11-^2H]-linoleic acid]
loss in cell viability (Q-less coq3 yeast; after 3 hours of treatment, data not shown): no detectable loss in cell viability

SMILES: [2H]C([2H])(/C=C\C/C=C\CC)C/C=C\CCCCCCC(=O)O [11, 11-D2-linolenic acid, 11,11-Dideutero-cis,cis,cis-octadeca-8,12,15-trienoic acid]
viability of coq null mutants after fatty acid treatment [1]: comparable protection

SMILES: [2H]C([2H])(/C=C\CC)/C=C\CC/C=C\CCCCCCC(=O)O [14, 14-D2-linolenic acid, 14,14-Dideutero-cis,cis,cis-octadeca-8,12,15-trienoic acid]
viability of coq null mutants after fatty acid treatment [1]: comparable protection

SMILES: [2H]C([2H])(/C=C\CCCCC)/C=C\CCCCCCCC(=O)O [D2-LA, 11,11-Dideutero-cis,cis-9,12-Octadecadienoic acid]
length of the kinetic chain, ν=ROX/RIN [2]: ≈ 1.1
rate of oxidation, ROX [2]: 1.8e-07 M/s
effect of addition of HPMC on oxidation ([2]; data not shown): did not result in the decrease in ROX and the appearance of any detectable induction period
estimated kinetic isotope effect (KIE) ([2]; from comparison of ROX for LA and D2-LA): ≈ 35
effect in mixture with non-deuterated methyl linoleate ([3]; data not shown): qualititatively similar effect
effect of D2-LA on autoxidation of non-deuterated LA ([3]; mixtures with LA): ‘protects’ the non-deuterated LA against autoxidation
minimal amount of D2-LA to cancel the toxicity of LA (Q-less coq3 yeast; 200 μM total LA and D2-LA at different ratios): 10-15%
levels of lipid peroxidation (Wild-type yeast cells): lower levels of lipid peroxidation similar to yeast not treated with PUFA

SMILES: [2H]C([2H])(/C=C\CC)/C=C\C([2H])([2H])/C=C\CCCCCCCC(=O)O [D4-ALA, 11,11,14,14-Tetradeutero-cis,cis,cis-9,12,15-Octadecatrienoic acid]
minimal amount of deuterated Lnn to cancel the toxicity of ALA (Q-less coq3 yeast; 200 μM total ALA and D4-Lnn at different ratios): 15-20%
viability of coq null mutants after fatty acid treatment ([1]; listed as D4-linolenic acid): resistant to PUFA-mediated cell killing
viability of cells by quantitative colony counting [1]: similar

length of the kinetic chain, ν=ROX/RIN [2]: 38±3
rate of oxidation, ROX [2]: 6.1e-06 M/s
rate of initiation, RIN ([2]; calculated from induction period, RIN=2·[HPMC]/tIND): around 0.16×10^−6 M/s
calculated oxidizability ([2]; n=5): 0.0215±0.008 M^−0.5 s^−0.5
SMILES: CCCCC/C=C\C/C=C\CCCCCCCC(=O)O [LA, cis,cis-9,12-Octadecadienoic acid, reference compound]

SMILES: CCCCC/C=C\C/C=C\C/C=C\C/C=C\CCCC(=O)O [arachidonic acid]
sensitivity of Q-less yeast to fatty acid treatment [4]: hypersensitive

SMILES: [2H]O[2H] [heavy water]
amount that might be drunk without serious consequences [5]: 4.8 L

SMILES: CC/C=C\C/C=C\C/C=C\CCCCCCCC(=O)O [linolenic acid, cis,cis,cis-9,12,15-Octadecatrienoic acid]
wild-type cells that remain viable (wild-type yeast (W303)): 70%
viable Q-less (coq2, coq3, and coq5) yeast mutants ([4]; four hour treatment): Less than 1%
viability of coq null mutants after fatty acid treatment [1]: dramatic loss of viability

SMILES: CCCCCCCC/C=C\CCCCCCCC(=O)O [oleic acid, reference compound]
sensitivity of Q-less yeast to fatty acid treatment [4]: behave the same as the wild-type parental strain
viability of cells by quantitative colony counting [1]: similar
